Reference: US20100160286A1, “HETEROARYLCARBAMOYLBENZENE DERIVATIVES FOR THE TREATMENT OF DIABETES” (ASTRAZENECA UK LIMITED AB, priority 2005, published 2010)

Tests used:
Zucker obese fa/fa rats = test: Oral Glucose Tolerance Test; format: in vivo, rat; conditions: 10 mg/kg; given orally 120 minutes before oral glucose 2 g/kg; Zucker obese fa/fa rats on high fat diet
Method: (2) Oral Glucose Tolerance Test (OGIT) Oral glucose tolerance tests were done on conscious Zucker obese fa/fa rats (age 12-13 weeks or older) fed a high fat diet (45% kcal fat) for at least two weeks prior to experimentation. The animals were fasted for 2 hours before use for experiments. A test compound or a vehicle was given orally 120 minutes before oral administration of a glucose solution at a dose of 2 g/kg body weight. Blood glucose levels were measured using a Accucheck glucometer from tail bled samples taken at different time points before and after administration of glucose (time course of […]). A time curve of the blood glucose levels was generated and the area-under-the-curve (AUC) for 120 minutes was calculated (the time of glucose administration being time zero). Percent reduction in glucose excursion was determined using the AUC in the vehicle-control group as zero percent reduction.

[1] = target: T1, recombinant human pancreatic GLK (Homo sapiens, UniProt P35557); test: biochemical
T1 sequence (P35557 1-465): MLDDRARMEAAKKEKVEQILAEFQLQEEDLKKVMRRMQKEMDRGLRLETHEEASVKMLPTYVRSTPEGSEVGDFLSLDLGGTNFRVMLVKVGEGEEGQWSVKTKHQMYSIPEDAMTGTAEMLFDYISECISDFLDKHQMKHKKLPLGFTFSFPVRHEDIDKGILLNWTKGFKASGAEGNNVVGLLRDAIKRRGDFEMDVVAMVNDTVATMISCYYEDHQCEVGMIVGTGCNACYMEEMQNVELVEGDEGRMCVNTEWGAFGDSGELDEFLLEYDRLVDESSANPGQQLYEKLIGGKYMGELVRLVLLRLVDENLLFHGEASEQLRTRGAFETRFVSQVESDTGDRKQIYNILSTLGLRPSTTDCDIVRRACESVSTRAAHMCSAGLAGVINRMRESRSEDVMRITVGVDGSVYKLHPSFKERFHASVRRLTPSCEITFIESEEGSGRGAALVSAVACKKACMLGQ

SMILES	effect in the Oral Glucose Tolerance Test (percent reduction in glucose excursion, AUC vs vehicle control) (Zucker obese fa/fa rats) [%]	EC50 [1] [nM]
Cn1ccc(NC(=O)c2cc(Oc3ccc(C(=O)N4CCC4)cc3)cc(O[C@H]3CCOC3)c2)n1 [Example 2, 3-{[4-(Azetidin-1-ylcarbonyl)phenyl]oxy}-N-(1-methyl-1H-pyrazol-3-yl)-5-[(3S)-tetrahydrofuran-3-yloxy]benzamide]	42	–
C#C[C@H](C)Oc1cc(Oc2ccc(C(=O)N3CCC3)cc2)cc(C(=O)Nc2ccn(C)n2)c1 [Example 7, 3-{[4-(Azetidin-1-ylcarbonyl)phenyl]oxy}-5-{[(15)-1-methylprop-2-yn-1-yl]oxy}-N-(1-methyl-1H-pyrazol-3-yl)benzamide]	–	60
